Data published in US20150017185A1, “METHOD TO IMPROVE THE IMMUNE FUNCTION OF T CELLS” (UCL BUSINESS PLC, priority 2011, published 2015).

Experiments:
[1] = test system: CD8+ CD45RA/CD27 T cell subsets; assay: Proliferation assay (Ki67 staining) with PDL-1/2 blockade and p38 inhibitor; format: cell-based, human; details: CD8+ T cells at all four stages of differentiation (N, CM, EM, EMRA); 4 days anti-CD3 and irradiated autologous APCs; 10 μg/ml PDL1/2 blocking antibodies, 500 nM BIRB796; 4 donors
Procedure: It was investigated whether either PD-1 or p38 signalling pathways contributed to the decreased proliferative activity of EMRA CD8^+ T cells. The four CD45RA/CD27 defined T cell subsets were isolated and then stimulated with anti-CD3 antibody and irradiated autologous APCs in the presence of either 10 μg/ml PDL1/2 blocking antibodies, 500 nM BIRB796 or both inhibitors together. Proliferative activity was determined by staining with Ki67 antibody. Representative histograms for the EMRA subset with and without the inhibitors is shown in FIG. 4A, while pooled results from all four subsets from 4 separate donors is shown in FIG. 4B.
PBMCs or sorted CD8^+ T cells were stimulated with 0.5 μg/ml plate coated anti-CD3 (OKT3) for 4 days and proliferation was assessed by staining for the nuclear antigen Ki67 that is expressed by cells at all stages of the cell cycle.
(§1) Signalling through PD-1 on purified total CD8^+ and CD27/CD45RA defined CD8^+ subsets was blocked by adding 10 μg/ml each of anti-PD-L1 (29E.2A3.C6) and anti-PD-L2 (24F.10C12.G12), or 10 μg/ml each of IgG2a (Mg2a-53) or IgG2b (MPC-11) isotype control antibodies (Abcam) at the start of the 4 day stimulation period with anti-CD3 (purified OKT3, 0.5 μg/ml) and irradiated APCs. The p38 inhibitor BIRB796 was added to the 4 day cultures at a final concentration of 500 nM and 0.1% DMSO was used as control.

[2] = test system: CD8+ CD45RA/CD27 T cell subsets; assay: Telomerase activity (TRAP assay) with PDL-1/2 blockade and p38 inhibitor; format: cell-based, human; details: 4 days anti-CD3 and irradiated autologous APCs
Excerpt: It was next investigated whether p38 or PD-1 signalling were involved in the decreased telomerase activity in EMRA CD8^+ T cells. […] Once again, CD8^+ T cell subsets were stimulated with anti-CD3 and irradiated autologous APCs in the presence of both inhibitors separately or together as in FIG. 4. […] The blockade of PD-1 signalling had no effect on telomerase activity in any of the subsets.
Purified CD8^+ T cell populations (2×10^5 cells) were snap-frozen after stimulation for 4 days with 0.5 μg/ml plate coated anti-CD3 (OKT3) and irradiated APCs. Telomerase activity was determined using the telomeric repeat amplification protocol (TRAP; TRAPeze telomerase detection kit; Chemicon) according to the protocol provided by the manufacturer. The absolute numbers of CD8^+ T cells were enumerated using trypan blue (Sigma). The TRAP assay was performed with samples adjusted to 500 Ki67^+ T cells per reaction to control for the different extents of proliferation in the different subsets after activation.
as §1, with “The p38 inhibitor BIRB796 was added to the 4 day cultures at a final concentration of 500 nM and 0.1% DMSO was used as control.” left out

With Cc1ccc(-n2nc(C(C)(C)C)cc2NC(=O)Nc2ccc(OCCN3CCOCC3)c3ccccc23)cc1 [BIRB796] the “proliferative activity (Ki67 staining)” value [1] was “increased proliferative activity”, the telomerase activity ([2]; CD45RA+CD27− (EMRA) CD8+ population, 500 nM BIRB796, 10 μg/ml anti-PDL1/2, p<0.05, 4 donors) was “significant increase” and the telomerase activity ([2]; N, CM and EM CD8+ T cells, p38 signalling blocked (500 nM BIRB796), results not significant) was “trend towards increased telomerase activity”.
